Reference: patent US9586951B2 (FUJIFILM Corporation, priority 2013, dated 2017)

Assays:
ATM = biological target: T1, ATM (Homo sapiens, UniProt Q13315); test: ATM inhibition test (phosphorylation of Chk2 generated by ionizing radiation, AlphaScreen SureFire); type: cell-based; conditions: phosphorylated Chk2 in NCI-H460 cells, ionizing radiation 8Gy, 1 hour after test compound treatment; read-out: ATM inhibitory activity
T1 construct: detecting phosphorylation of Chk2 in a human non-small cell lung cancer cell line NCI-H460 (ATCC company); host or cells: NCI-H460 human non-small cell lung cancer cells
T1 sequence (Q13315 whole entry): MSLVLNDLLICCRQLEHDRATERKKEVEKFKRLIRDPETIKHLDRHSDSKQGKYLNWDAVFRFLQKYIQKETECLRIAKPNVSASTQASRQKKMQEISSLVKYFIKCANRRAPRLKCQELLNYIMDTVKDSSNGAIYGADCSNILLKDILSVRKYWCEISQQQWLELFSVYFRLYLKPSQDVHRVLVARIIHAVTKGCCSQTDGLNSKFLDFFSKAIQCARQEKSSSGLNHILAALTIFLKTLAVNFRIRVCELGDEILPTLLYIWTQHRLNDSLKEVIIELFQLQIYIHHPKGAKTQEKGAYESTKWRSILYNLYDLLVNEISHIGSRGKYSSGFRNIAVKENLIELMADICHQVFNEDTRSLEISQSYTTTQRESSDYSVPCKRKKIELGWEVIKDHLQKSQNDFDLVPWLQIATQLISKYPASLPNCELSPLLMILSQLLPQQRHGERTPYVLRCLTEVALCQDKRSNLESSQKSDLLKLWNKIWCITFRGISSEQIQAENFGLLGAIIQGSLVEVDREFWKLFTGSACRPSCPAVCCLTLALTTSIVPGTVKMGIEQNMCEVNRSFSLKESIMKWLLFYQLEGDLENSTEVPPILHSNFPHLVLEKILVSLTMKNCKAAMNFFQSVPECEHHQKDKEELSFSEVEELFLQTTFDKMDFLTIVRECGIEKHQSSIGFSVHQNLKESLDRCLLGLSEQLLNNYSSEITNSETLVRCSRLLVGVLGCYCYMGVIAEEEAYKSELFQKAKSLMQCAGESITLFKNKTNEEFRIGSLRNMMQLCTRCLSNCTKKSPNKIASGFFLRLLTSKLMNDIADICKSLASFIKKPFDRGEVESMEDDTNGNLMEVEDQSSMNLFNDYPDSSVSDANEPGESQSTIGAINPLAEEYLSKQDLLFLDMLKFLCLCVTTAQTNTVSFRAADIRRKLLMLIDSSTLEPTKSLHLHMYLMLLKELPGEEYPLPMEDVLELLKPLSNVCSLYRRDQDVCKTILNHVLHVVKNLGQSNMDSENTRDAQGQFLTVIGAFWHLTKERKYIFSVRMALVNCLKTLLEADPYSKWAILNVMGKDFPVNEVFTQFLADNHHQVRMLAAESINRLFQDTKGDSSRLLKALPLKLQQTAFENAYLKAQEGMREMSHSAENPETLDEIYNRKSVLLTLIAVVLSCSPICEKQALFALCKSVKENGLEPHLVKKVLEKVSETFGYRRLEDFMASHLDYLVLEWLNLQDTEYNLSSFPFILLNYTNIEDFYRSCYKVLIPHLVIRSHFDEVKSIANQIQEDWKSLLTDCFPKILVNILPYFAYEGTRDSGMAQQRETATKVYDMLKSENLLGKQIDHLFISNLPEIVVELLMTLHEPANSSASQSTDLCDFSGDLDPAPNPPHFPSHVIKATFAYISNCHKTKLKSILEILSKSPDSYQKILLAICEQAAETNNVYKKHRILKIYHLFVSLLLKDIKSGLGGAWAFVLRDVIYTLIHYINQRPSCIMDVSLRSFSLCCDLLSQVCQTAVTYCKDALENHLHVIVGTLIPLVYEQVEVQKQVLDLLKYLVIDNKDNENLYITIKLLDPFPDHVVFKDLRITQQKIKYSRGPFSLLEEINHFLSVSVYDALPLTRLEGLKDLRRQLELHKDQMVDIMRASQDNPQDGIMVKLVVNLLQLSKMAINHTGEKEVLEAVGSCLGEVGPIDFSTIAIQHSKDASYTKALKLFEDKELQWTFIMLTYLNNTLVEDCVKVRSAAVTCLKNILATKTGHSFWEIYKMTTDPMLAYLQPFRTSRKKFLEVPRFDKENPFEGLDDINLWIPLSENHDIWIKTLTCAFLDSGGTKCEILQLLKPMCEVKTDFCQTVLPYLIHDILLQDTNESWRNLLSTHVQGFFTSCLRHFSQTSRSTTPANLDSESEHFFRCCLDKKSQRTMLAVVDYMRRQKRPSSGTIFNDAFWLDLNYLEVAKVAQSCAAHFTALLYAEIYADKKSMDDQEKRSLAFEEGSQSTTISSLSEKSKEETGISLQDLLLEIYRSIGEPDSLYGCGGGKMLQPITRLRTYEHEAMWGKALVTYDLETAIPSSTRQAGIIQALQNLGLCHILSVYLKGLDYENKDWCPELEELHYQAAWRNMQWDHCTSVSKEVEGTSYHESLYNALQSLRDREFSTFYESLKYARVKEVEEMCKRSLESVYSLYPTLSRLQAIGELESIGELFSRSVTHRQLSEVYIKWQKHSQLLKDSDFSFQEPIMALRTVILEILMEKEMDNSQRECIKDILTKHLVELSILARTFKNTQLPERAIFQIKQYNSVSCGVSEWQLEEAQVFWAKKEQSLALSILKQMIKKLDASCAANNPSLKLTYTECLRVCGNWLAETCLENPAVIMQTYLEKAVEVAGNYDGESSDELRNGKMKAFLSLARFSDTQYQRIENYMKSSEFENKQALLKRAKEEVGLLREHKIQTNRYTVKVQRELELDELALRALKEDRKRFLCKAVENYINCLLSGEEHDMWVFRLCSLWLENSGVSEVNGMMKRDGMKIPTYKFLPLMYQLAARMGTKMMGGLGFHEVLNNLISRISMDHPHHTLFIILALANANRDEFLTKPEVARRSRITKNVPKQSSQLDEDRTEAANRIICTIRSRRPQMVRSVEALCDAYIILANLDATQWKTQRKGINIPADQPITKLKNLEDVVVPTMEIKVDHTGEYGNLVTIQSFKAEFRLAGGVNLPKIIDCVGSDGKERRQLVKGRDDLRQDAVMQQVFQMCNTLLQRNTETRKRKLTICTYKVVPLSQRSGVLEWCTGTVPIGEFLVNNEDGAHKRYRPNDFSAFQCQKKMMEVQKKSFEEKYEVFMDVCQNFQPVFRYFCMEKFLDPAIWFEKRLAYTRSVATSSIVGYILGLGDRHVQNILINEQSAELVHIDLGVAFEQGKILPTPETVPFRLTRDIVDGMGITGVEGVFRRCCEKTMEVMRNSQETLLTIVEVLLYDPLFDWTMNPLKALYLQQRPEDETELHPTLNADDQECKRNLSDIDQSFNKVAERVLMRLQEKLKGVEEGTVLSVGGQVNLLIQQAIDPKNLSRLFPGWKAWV
Procedure, shortened: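 NCI-H460 cells, compound 1 h pre-treatment, 8Gy IR, further 1 h at 37° C in 5% CO2. Read-out: phospho-Chk2 via AlphaScreen SureFire. % inhibition relative to IR-induced signal window (irradiated vs non-irradiated drug-free wells).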

[1] = tested on: human non-small cell lung cancer cell line NCI-H460; test: Cell proliferation inhibition test by sensitivity-enhancing to ionizing radiation (Cell Titer Glo); type: cell-based; conditions: concentration in which SER became 2, NCI-H460 cells, ionizing radiation 2 Gy, cultured 120 hour
Procedure, shortened: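 Cells seeded at 2×10^3 cells/mL in RPMI-1640 with 10% FBS; after 24 h, compound added (0.1% DMSO), and 30 min later half the plates irradiated at 2 Gy. After 120 hour at 37° C, viability by Cell Titer Glo luminescence; SER2 is the concentration giving SER of 2 by sigmoidal fit.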

| Compound | IC50 (ATM) | SER2 (concentration at which the radiation sensitivity-enhancement ratio reaches 2) ([1]; Homo sapiens, NCI-H460, 120 h) | SER2 (concentration at which the radiation sensitivity-enhancement ratio reaches 2) [1] |
| --- | --- | --- | --- |
| COCC(Nc1ccc2c(c1)Cc1cccc(-c3cc(N4CCOCC4)cc(=O)[nH]3)c1O2)c1cccc(C)n1 (stereo not shown) [Example 2-14-45, 6-(7-((2-Methoxy-1-(6-methylpyridin-2-yl)ethyl)amino)-9H-xanthen-4-yl)-4-morpholino pyridin-2 (1H)-one] | < 100 nM | 100 to 500 nM | – |
| Cc1ccc(C(Nc2ccc3c(c2)Sc2cccc(-c4cc(N5CCOCC5)cc(=O)[nH]4)c2S3)C2CN(C)CCO2)nc1 (single isomer, unassigned) [Example 1-52-2, 6-(7-(((4-methylmorpholin-2-yl)(5-methylpyridin-2-yl)methyl)amino)thianthren-1-yl)-4-morpholinopyridin-2(1H)-one] | < 100 nM | – | < 100 nM |
| Cc1ccc(C(Nc2ccc3c(c2)Sc2cccc(-c4cc(N5CCOCC5)cc(=O)[nH]4)c2S3)[C@H]2CN(C(=O)CN(C)C)CCO2)nc1 (single isomer, unassigned) [Example 10-1] | 100 to 500 nM | < 100 nM | – |
| Cc1ccnc(C(C)Nc2ccc3c(c2)Sc2cccc(-c4cc(N5CCOCC5)cc(=O)[nH]4)c2S3)c1 (single isomer, unassigned) [Example 1-12-135-1, 6-(7-((1-(4-methylpyridin-2-yl)ethyl)amino)thianthren-1-yl)-4-morpholinopyridin-2(1H)-one] | < 100 nM | < 100 nM | – |
| O=c1cc(N2CCOCC2)cc(-c2cccc3c2Sc2ccc(NCCN4CC5(COC5)C4)cc2S3)[nH]1 [Example 1-16-3, 6-(7-((2-(2-Oxa-6-azaspiro[3.3]heptan-6-yl)ethyl)amino)thianthren-1-yl)-4-morpholinopyridin-2(1H)-one] | < 100 nM | 100 to 500 nM | – |
| CC(CN1CCN(c2ccccn2)CC1)Nc1ccc2c(c1)Sc1cccc(-c3cc(N4CCOCC4)cc(=O)[nH]3)c1S2 (stereo not shown) [Example 1-13-17, 4-Morpholino-6-(7-((1-(4-(pyridin-2-yl)piperazin-1-yl)propan-2-yl)amino)thianthren-1-yl)pyridin-2 (1H)-one] | < 100 nM | 100 to 500 nM | – |
| Cc1ccc(C(Nc2ccc3c(c2)Sc2cccc(-c4cc(N5CCOCC5)cc(=O)[nH]4)c2S3)C2CCCN(C)C2)nc1 (stereo not shown) [Example 1-22-10, 6-(7-(((1-Methylpiperidin-3-yl)(5-methylpyridin-2-yl)methyl)amino)thianthren-1-yl)-4-morpholino pyridin-2(1H)-one] | < 100 nM | 100 to 500 nM | – |
| CN(C)c1cnc(CNc2ccc3c(c2)Cc2cccc(-c4cc(N5CCOCC5)cc(=O)[nH]4)c2O3)cn1 [Example 2-2-37] | < 100 nM | 500 to 2000 nM | – |
| Cc1cccc(C(CCN(C)C)Nc2ccc3c(c2)Sc2cccc(-c4cc(N5CCOCC5)cc(=O)[nH]4)c2S3)n1 (single isomer, unassigned) [Example 1-22-11-1, 6-(7-((3-(dimethylamino)-1-(6-methylpyridin-2-yl)propyl)amino)thianthren-1-yl)-4-morpholinopyridin-2(1H)-one] | < 100 nM | 100 to 500 nM | – |
| Cc1ccc(C(Nc2ccc3c(c2)Sc2cccc(-c4cc(N5CCOCC5)cc(=O)[nH]4)c2S3)C2CCN(C)CC2)nc1 (single isomer, unassigned) [Example 1-51-1, 6-(7-(((1-methylpiperidin-4-yl)(5-methylpyridin-2-yl)methyl)amino)thianthren-1-yl)-4-morpholinopyridin-2(1H)-one] | < 100 nM | – | < 100 nM |
| O=c1cc(N2CCOCC2)cc(-c2cccc3c2Oc2ccc(NCc4cc(Cl)ccn4)cc2S3)[nH]1 [Example 4-4-2, 6-(8-(((4-Chloropyridin-2-yl)methyl)amino)phenoxathiin-4-yl)-4-morpholino pyridin-2(1H)-one] | < 100 nM | 100 to 500 nM | – |
| O=c1cc(N2CCOCC2)cc(-c2cccc3c2Oc2ccc(NCc4cncc(C(F)(F)F)c4)cc2C3)[nH]1 [Example 2-13-4, 4-Morpholino-6-(7-(((5-(trifluoromethyl)pyridin-3-yl)methyl)amino)-9H-xanthen-4-yl)pyridin-2(1H)-one] | < 100 nM | 100 to 500 nM | – |
| CC(Nc1ccc2c(c1)Sc1cccc(-c3cc(N4CCOCC4)cc(=O)[nH]3)c1S2)c1cc(CF)ncn1 (stereo not shown) [Example 1-12-91, 6-(7-((1-(6-(Fluoromethyl)pyrimidin-4-yl)ethyl)amino)thianthren-1-yl)-4-morpholino pyridin-2(1H)-one] | < 100 nM | 100 to 500 nM | – |
| Cc1ccc(C(Nc2ccc3c(c2)Sc2cccc(-c4cc(N5CCOCC5)cc(=O)[nH]4)c2S3)C2CC2)nc1 (stereo not shown) [Example 1-12-123, 6-(7-((Cyclopropyl(5-methylpyridin-2-yl)methyl)amino)thianthren-1-yl)-4-morpholino pyridin-2(1H)-one] | < 100 nM | 100 to 500 nM | – |
| CN1CCN(CCNc2ccc3c(c2)Sc2cccc(-c4cc(N5CCOCC5)cc(=O)[nH]4)c2S3)CC1 [Example 1-10-9, 6-(7-((2-(4-Methylpiperazin-1-yl)ethyl)amino)thianthren-1-yl)-4-morpholino pyridin-2(1H)-one] | < 100 nM | 100 to 500 nM | – |
| CC(Nc1ccc2c(c1)Cc1cccc(-c3cc(N4CCOCC4)cc(=O)[nH]3)c1O2)c1cccc(F)n1 (stereo not shown) [Example 2-14-21, 6-(7-((1-(6-Fluoropyridin-2-yl)ethyl)amino)-9H-xanthen-4-yl)-4-morpholino pyridin-2(1H)-one] | < 100 nM | 100 to 500 nM | – |
| Cc1cc(CNc2ccc3c(c2)Cc2cccc(-c4cc(N5CCOCC5)cc(=O)[nH]4)c2O3)ccn1 [Example 2-2-20, 6-(7-(((2-Methylpyridin-4-yl)methyl)amino)-9H-xanthen-4-yl)-4-morpholino pyridin-2(1H)-one] | < 100 nM | 500 to 2000 nM | – |
| CN(C)c1ncc(CNc2ccc3c(c2)Cc2cccc(-c4cc(N5CCOCC5)cc(=O)[nH]4)c2O3)cn1 [Example 2-2-17, 6-(7-(((2-(Dimethylamino)pyrimidin-5-yl)methyl)amino)-9H-xanthen-4-yl)-4-morpholino pyridin-2(1H)-one] | < 100 nM | 500 to 2000 nM | – |
| O=c1cc(N2CCOCC2)cc(-c2cccc3c2Sc2ccc(NC(CF)CN4CCOCC4)cc2S3)[nH]1 (single isomer, unassigned) [Example 1-41-1-2, 6-(7-((1-fluoro-3-morpholinopropan-2-yl)amino)thianthren-1-yl)-4-morpholinopyridin-2(1H)-one] | < 100 nM | < 100 nM | – |
| Cc1cnc(C(CCN(C)C)Nc2ccc3c(c2)Sc2cccc(-c4cc(N5CCOCC5)cc(=O)[nH]4)c2S3)cn1 (single isomer, unassigned) [Example 1-22-12-2, 6-(7-((3-(dimethylamino)-1-(5-methylpyrazin-2-yl)propyl)amino)thianthren-1-yl)-4-morpholinopyridin-2(1H)-one] | < 100 nM | – | < 100 nM |
| Cc1ccnc(CNc2ccc3c(c2)Cc2cccc(-c4cc(N5CCOCC5)cc(=O)[nH]4)c2O3)c1 [Example 2-2-40, 6-(7-(((4-Methylpyridin-2-yl)methyl)amino)-9H-xanthen-4-yl)-4-morpholino pyridin-2(1H)-one] | < 100 nM | 100 to 500 nM | – |
| Cc1ccc(CNc2ccc3c(c2)Sc2cccc(-c4cc(N5CCOCC5)cc(=O)[nH]4)c2O3)nc1 [Example 4-8-13, 6-(8-(((5-Methylpyridin-2-yl)methyl)amino)phenoxathiin-4-yl)-4-morpholino pyridin-2(1H)-one] | < 100 nM | 100 to 500 nM | – |
| COc1ncc(CNc2ccc3c(c2)Sc2cccc(-c4cc(N5CCOCC5)cc(=O)[nH]4)c2O3)cn1 [Example 4-4-4, 6-(8-(((2-Methoxypyrimidin-5-yl)methyl)amino)phenoxathiin-4-yl)-4-morpholino pyridin-2 (1H)-one] | < 100 nM | 500 to 2000 nM | – |
| Cc1cccc(C(CO)Nc2ccc3c(c2)Sc2cccc(-c4cc(N5CCOCC5)cc(=O)[nH]4)c2S3)n1 (stereo not shown) [Example 1-12-71, 6-(7-((2-Hydroxy-1-(6-methylpyridin-2-yl)ethyl)amino)thianthren-1-yl)-4-morpholino pyridin-2(1H)-one] | < 100 nM | 100 to 500 nM | – |
| CNc1ccc(CNc2ccc3c(c2)Sc2cccc(-c4cc(N5CCOCC5)cc(=O)[nH]4)c2O3)cn1 [Example 4-4-6, 6-(8-(((6-(Methylamino)pyridin-3-yl)methyl)amino)phenoxathiin-4-yl)-4-morpholino pyridin-2(1H)-one] | < 100 nM | 500 to 2000 nM | – |
| Cc1ccc(C2(Nc3ccc4c(c3)Sc3cccc(-c5cc(N6CCOCC6)cc(=O)[nH]5)c3S4)CC2)nc1 [Example 1-50-5, 6-(7-((1-(5-Methylpyridin-2-yl)cyclopropyl)amino)thianthren-1-yl)-4-morpholino pyridin-2(1H)-one] | < 100 nM | 100 to 500 nM | – |
